Measured values published in article PMC6934184, “Selective DNA-PKcs inhibition extends the therapeutic index of localized radiotherapy and chemotherapy” (The Journal of Clinical Investigation, 2019).

Biological target: T1, SLK (Homo sapiens, UniProt Q9H2G2)
T1 construct: purchased Thermo Fisher Scientific (Life Technologies) SelectScreen
Assay: SelectScreen LanthaScreen
Assay type: binding
Conditions: read-out: % displacement
Outline: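 SelectScreen broad panel; activity (Z'LYTE, Adapta) plus binding formats. ATP: Km app for CSF1R Z'LYTE; 10 for CAMK1 Adapta. Readout = % per kinase.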

T1 sequence (Q9H2G2 whole entry): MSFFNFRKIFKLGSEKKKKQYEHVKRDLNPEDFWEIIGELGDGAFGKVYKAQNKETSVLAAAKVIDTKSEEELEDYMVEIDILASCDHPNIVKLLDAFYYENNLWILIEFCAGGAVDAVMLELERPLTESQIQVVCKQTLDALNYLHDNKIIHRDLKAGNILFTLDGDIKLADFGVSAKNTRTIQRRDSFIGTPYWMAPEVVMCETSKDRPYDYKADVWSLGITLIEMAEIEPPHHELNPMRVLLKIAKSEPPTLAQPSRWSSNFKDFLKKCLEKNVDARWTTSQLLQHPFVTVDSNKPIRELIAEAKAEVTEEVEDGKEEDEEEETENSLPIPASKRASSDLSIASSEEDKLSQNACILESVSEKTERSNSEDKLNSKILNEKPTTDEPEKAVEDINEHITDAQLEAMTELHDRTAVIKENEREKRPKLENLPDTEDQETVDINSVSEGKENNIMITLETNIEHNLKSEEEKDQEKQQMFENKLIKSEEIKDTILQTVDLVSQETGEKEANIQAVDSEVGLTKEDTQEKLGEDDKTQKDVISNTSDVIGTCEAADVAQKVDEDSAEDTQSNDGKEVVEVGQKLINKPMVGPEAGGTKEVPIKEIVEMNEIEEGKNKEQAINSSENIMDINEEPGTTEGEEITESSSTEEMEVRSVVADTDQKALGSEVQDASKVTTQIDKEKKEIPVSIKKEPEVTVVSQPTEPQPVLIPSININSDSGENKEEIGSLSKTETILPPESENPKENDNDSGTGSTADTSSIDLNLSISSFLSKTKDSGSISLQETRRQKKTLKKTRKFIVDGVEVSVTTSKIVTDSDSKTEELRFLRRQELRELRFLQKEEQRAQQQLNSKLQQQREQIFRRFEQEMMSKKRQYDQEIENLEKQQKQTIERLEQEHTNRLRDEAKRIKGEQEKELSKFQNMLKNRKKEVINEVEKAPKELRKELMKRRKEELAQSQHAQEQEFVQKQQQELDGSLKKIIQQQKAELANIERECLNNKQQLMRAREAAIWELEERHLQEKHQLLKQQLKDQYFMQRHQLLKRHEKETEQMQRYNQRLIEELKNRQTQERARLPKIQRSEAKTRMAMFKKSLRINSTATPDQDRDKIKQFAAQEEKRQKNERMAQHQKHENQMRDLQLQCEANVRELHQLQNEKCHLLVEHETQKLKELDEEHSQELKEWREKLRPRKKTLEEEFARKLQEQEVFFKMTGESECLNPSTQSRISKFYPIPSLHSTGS

## CN(C(=O)CN1CCOCC1)c1ccc2sc3c(-c4cccc5c(=O)cc(N6CC7CCC(C6)O7)oc45)cccc3c2c1 [NU5455]
  inhibition at 1 µM: 1.5%
